According to ChEMBL document CHEMBL1134788, “Oxindole derivatives as orally active potent growth hormone secretagogues” (J Med Chem, 2001):

Species: Rattus norvegicus
Experiment: In vitro growth hormone releasing activity was measured in rat pituitary cells
Format: functional, cell-based
Settings: Pituitary gland cell

Structure (SMILES) | EC50 [nM]
CCN(CC)CCN1C(=O)C(O)(c2ccc3ccccc3c2)c2cccc(Br)c21 (centres undefined) | > 1000
CCN(CC)CCN1C(=O)C(O)(c2ccc3ccccc3c2)c2cc(Br)ccc21 (centres undefined) | > 1000
CCN(CC)CCN1C(=O)[C@@](O)(c2cc3ccccc3cc2Cl)c2c1cc(C(N)=O)cc2C(F)(F)F | 3
CCN(CC)CCN1C(=O)C(O)(c2ccc3ccccc3c2)c2c(C#CCO)cc(Cl)cc21 (centres undefined) | > 1000
CCN(CC)CCN1C(=O)C(O)(c2ccc3ccccc3c2)c2c1cc(C#CCO)cc2C(F)(F)F (centres undefined) | 310
CCN(CC)CCN1C(=O)C(O)(c2ccc3ccccc3c2)c2c(Cl)cc(C#CCO)cc21 (centres undefined) | 310
CCN(CC)CCN1C(=O)C(O)(c2cc3ccccc3cc2Cl)c2c1cc(C(N)=O)cc2C(F)(F)F (centres undefined) | 3.5
CCN(CC)CCN1C(=O)C(O)(c2ccc3ccccc3c2)c2ccc(Br)cc21 (centres undefined) | 380
CCN(CC)CCN1C(=O)C(O)(c2ccc3ccccc3c2)c2c1cc(C#CCCC(=O)N1CCOCC1)cc2C(F)(F)F (centres undefined) | 30
CCN(CC)CCN1C(=O)C(O)(c2ccc3ccccc3c2)c2ccccc21 (centres undefined) | > 1000
CCN(CC)CCN1C(=O)C(O)(c2ccc3ccccc3c2)c2c1cc(C(N)=O)cc2C(F)(F)F (centres undefined) | 18
CCN(CC)CCN1C(=O)[C@](O)(c2cc3ccccc3cc2Cl)c2c1cc(C(N)=O)cc2C(F)(F)F | 210
CCN(CC)CCN1C(=O)C(O)(c2ccc3ccccc3c2)c2c1cc(C#CCCC(N)=O)cc2C(F)(F)F (centres undefined) | 30
CCN(CC)CCN1C(=O)C(O)(c2ccc3ccccc3c2)c2c(Br)cccc21 (centres undefined) | 77
